According to the supplement of paper PMC10307832:

Legend:
Assay in all cases: relative viability (nuclei count vs DMSO), 5 days (fraction); higher = more cells survive
AZD1208 = compound: N[C@@H]1CCCN(c2c(/C=C3\SC(=O)NC3=O)cccc2-c2ccccc2)C1 [AZD1208]
Method in brief: (§1)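 Five library-drug doses, separated by factors of √10, were pinned into 1536-well plates holding lung cancer cell lines after an overnight stay at 37 °C. Cells were fixed, permeabilised and Hoechst-stained in one step after 5 days without medium change, then imaged at 4×. Viability compares treated-well with vehicle-well nuclei, counted in MetaXpress, as a median across plates. Passing plates had control CV below 25% and at least one doubling.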

XMD14-99 = compound: CN1CCN(CC1)C2=CC(=C(C=C2)NC3=NC(=C(S3)C(=O)C4=C(C=CC=C4Cl)Cl)N)OC [XMD14-99]
Method in brief: as §1

AZD1208 + Pemetrexed = compound: N[C@@H]1CCCN(c2c(/C=C3\SC(=O)NC3=O)cccc2-c2ccccc2)C1 [AZD1208] + Nc1nc2[nH]cc(CCc3ccc(C(=O)N[C@@H](CCC(=O)O)C(=O)O)cc3)c2c(=O)[nH]1 [Pemetrexed] (partner 0.2 µM)
Method in brief: (§2)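 The day after seeding in 1536-well plates, lung cancer cell lines were treated by pin tool with a single drug, or with a fixed anchor-drug dose together with five library-drug doses (not always all listed) in √10 steps. After 5 days, a combined fix-and-stain solution (final 0.05% Triton X-100, 1% formaldehyde, 1 ug/ml Hoechst) was added. Nuclei counted on 4× images gave relative viability as treated counts over vehicle counts, reported as the median of duplicate plates.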

XMD14-99 + OSI-027 = compound: CN1CCN(CC1)C2=CC(=C(C=C2)NC3=NC(=C(S3)C(=O)C4=C(C=CC=C4Cl)Cl)N)OC [XMD14-99] + COc1cccc2cc(-c3nc([C@H]4CC[C@H](C(=O)O)CC4)n4ncnc(N)c34)[nH]c12 [OSI-027] (partner 0.5 µM)
Method in brief: as §2

| Cell Line | relative viability (AZD1208; 0.08 µM) | relative viability (AZD1208; 0.253 µM) | relative viability (AZD1208; 0.8 µM) | relative viability (AZD1208; 2.53 µM) | relative viability (AZD1208; 8 µM) | relative viability (XMD14-99; 0.08 µM) | relative viability (XMD14-99; 0.8 µM) | relative viability (XMD14-99; 2.53 µM) | relative viability (XMD14-99; 8 µM) | relative viability (AZD1208 + Pemetrexed; first compound 0.08 µM) | relative viability (AZD1208 + Pemetrexed; first compound 0.253 µM) | relative viability (AZD1208 + Pemetrexed; first compound 0.8 µM) | relative viability (AZD1208 + Pemetrexed; first compound 2.53 µM) | relative viability (AZD1208 + Pemetrexed; first compound 8 µM) | relative viability (XMD14-99 + OSI-027; first compound 0.08 µM) | relative viability (XMD14-99 + OSI-027; first compound 0.8 µM) | relative viability (XMD14-99 + OSI-027; first compound 2.53 µM) | relative viability (XMD14-99 + OSI-027; first compound 8 µM) |
| --- | --- | --- | --- | --- | --- | --- | --- | --- | --- | --- | --- | --- | --- | --- | --- | --- | --- | --- |
| 201T | 1.05 | 0.99 | 0.952 | 0.933 | 0.939 | 0.993 | 0.986 | 0.99 | 0.804 | 0.346 | 0.339 | 0.305 | 0.269 | 0.327 | 0.748 | 0.729 | 0.828 | 0.494 |
| A549 | 0.957 | 0.952 | 0.868 | 0.934 | 0.786 | 0.955 | 0.97 | 0.898 | 0.726 | – | – | – | – | – | – | – | – | – |
| A-427 | 1.1 | 0.972 | 0.895 | 0.962 | 0.747 | 1.05 | 0.939 | 0.866 | 0.643 | 0.971 | 1.05 | 0.847 | 1.03 | 0.911 | 0.457 | 0.421 | 0.401 | 0.311 |
| ABC-1 | 0.965 | 0.966 | 0.856 | 0.923 | 0.899 | 0.99 | 1.03 | 0.964 | 0.727 | – | – | – | – | – | 0.431 | 0.551 | 0.382 | 0.291 |
| BEN | 0.954 | 0.84 | 0.629 | 0.709 | 0.537 | 0.969 | 0.988 | 0.961 | 0.801 | 0.877 | 0.525 | 0.568 | 0.612 | 0.558 | 0.29 | 0.295 | 0.312 | 0.264 |
| CAL-12T | 1.01 | 1.13 | 0.967 | 1.01 | 1.05 | 0.974 | 1.01 | 0.933 | 0.692 | 1.21 | 1.22 | 1.18 | 1.23 | 1.14 | 0.492 | 0.68 | 0.747 | 0.377 |
| COR-L23 | 0.969 | 1.12 | 0.965 | 0.99 | 1 | 1.04 | 0.891 | 0.946 | 0.693 | 0.188 | 0.193 | 0.195 | 0.206 | 0.194 | 0.796 | 0.724 | 0.561 | 0.406 |
| COR-L 105 | 0.837 | 0.909 | 0.929 | 0.712 | 0.821 | 0.852 | 1.14 | 0.706 | 0.718 | 1.1 | 0.982 | 1.01 | 1.2 | 1.08 | 0.701 | 0.646 | 0.647 | 0.409 |
| Calu-6 | 1 | 1.1 | 0.968 | 1.04 | 0.989 | 0.937 | 0.932 | 0.936 | 0.785 | – | – | – | – | – | – | – | – | – |
| ChaGo-K-1 | 1.13 | 1.03 | 0.924 | 1.04 | 0.893 | 0.97 | 1.03 | 0.961 | 0.939 | 0.269 | 0.261 | 0.293 | 0.261 | 0.25 | 0.554 | 0.658 | 0.612 | 0.472 |
| EBC-1 | 1.02 | 1.12 | 0.93 | 0.967 | 0.957 | 0.962 | 0.924 | 0.842 | 0.637 | – | – | – | – | – | – | – | – | – |
| EKVX | 0.988 | 1.11 | 0.903 | 1.04 | 0.972 | 0.98 | 0.892 | 0.954 | 0.812 | 0.411 | 0.441 | 0.404 | 0.425 | 0.404 | 0.653 | 0.72 | 0.655 | 0.586 |
| EMC-BAC-2 | 1.23 | 0.95 | 0.917 | 0.949 | 0.754 | 1.01 | 1.03 | 0.889 | 0.645 | 0.462 | 0.474 | 0.511 | 0.524 | 0.54 | 0.362 | 0.384 | 0.313 | 0.292 |
| EPLC-272H | 0.983 | 0.974 | 0.861 | 0.864 | 0.742 | 1.09 | 0.998 | 0.942 | 0.787 | 0.353 | 0.422 | 0.376 | 0.342 | 0.406 | 0.311 | 0.32 | 0.282 | 0.263 |
| H3255 | 1.04 | 1.02 | 0.938 | 0.934 | 0.947 | 0.955 | 0.957 | 0.802 | 0.684 | 0.591 | 0.577 | 0.597 | 0.524 | 0.598 | 0.548 | 0.57 | 0.535 | 0.487 |
| HARA | 0.935 | 1.17 | 0.974 | 0.931 | 0.997 | 0.894 | 0.947 | 0.701 | 0.692 | 0.251 | 0.206 | 0.292 | 0.282 | 0.227 | 0.46 | 0.426 | 0.321 | 0.182 |
| HCC-15 | 1.01 | 1.02 | 0.879 | 0.939 | 0.805 | 1.02 | 1.03 | 0.922 | 0.759 | 0.215 | 0.214 | 0.225 | 0.237 | 0.213 | 0.606 | 0.622 | 0.638 | 0.463 |
| HCC-44 | 1.11 | 0.933 | 1.01 | 1.09 | 1.05 | 1.04 | 0.969 | 1.02 | 0.948 | 0.636 | 0.592 | 0.62 | 0.688 | 0.639 | 0.46 | 0.493 | 0.421 | 0.469 |
| HCC-78 | 1.02 | 1.02 | 0.963 | 1.02 | 1.06 | 0.985 | 0.841 | 0.883 | 0.571 | 0.91 | 0.908 | 0.897 | 0.87 | 0.912 | 0.389 | 0.339 | 0.377 | 0.319 |
